target: PASK (Invitrogen) (Homo sapiens (Human), UniProt Q96RG2); assay: PAS Kinase FRET Assay; format: biochemical; conditions: TR-FRET (665 nm/615 nm), Ulight-peptide substrate, 2 hours at 25° C.; read-out: IC50 Kinase Domain
Source text: The aim of the FRET assay is to determine the inhibition potential of test compounds on targeted kinase. This assay platform provides a homogenous screening method for measuring kinase activity by quantitating the amount of phospho-substrate in solution following a kinase reaction.
In the presence of kinase and ATP, the Ulight-peptide is phosphorylated and captured by an anti-phospho-substrate antibody, which brings the Eu chelate donor and Ulight acceptor dyes into close proximity. Upon excitation at 340 nm, the Eu chelate transfers its energy to the Ulight dye, resulting in a fluorescent light emission at 665 nm.
Titration of kinase at 1 mM ATP was achieved via the following protocol. After making serial three-fold dilutions of PASK (Invitrogen) in reaction buffer across the plate; 5 μl of kinase dilution and 5 μl substrate/ATP mix were added to the wells of the white Optiplate-384 (PerkinElmer). The contents of the plate were and incubated at RT for 1 h. The reaction was stopped by adding 5 μl of stop solution to each test well followed by mixing and incubation at RT for 10 minutes. 5 μl of detection mix (detection antibody diluted in detection buffer) was added; the contents of the plate were mixed and then incubated in the dark for 1 hour at RT. The signal was recorded at TR-FRET mode (665 nm/615 nm). The results were graphed to calculate the EC50.
Titration of ATP at the EC50 concentration of kinase to determine ATP Km,app. was performed using the following method. After making serial dilutions of ATP (Invitrogen), 5 μl of ATP dilution and 5 μl substrate/kinase mix were added to the wells of the white Optiplate-384 (PerkinElmer). The contents of the plate were and incubated at RT for 1 h. The reaction was stopped by adding 5 μl of stop solution to each test well followed by mixing and incubation at RT for 10 minutes. 5 μl of detection mix (detection antibody diluted in detection buffer) was added; the contents of the plate were mixed and then incubated in the dark for 1 hour at RT. The signal was recorded at TR-FRET mode (665 nm/615 nm). The results were graphed to calculate the EC50 as the ATP Km,app.
Compound screening was done via the following method. 10 mM stock solution of test compound in DMSO was prepared by dissolving test compound in DMSO at RT for 1 hour, and then sonicating at 100% output for 8 minutes. If compound is not soluble under this condition, it was diluted to 3 mM. Kinase reaction buffer was prepared containing 10 mM MgCl2, 50 mM HEPES, 1 mM EGTA, 0.01% TWEEN-20, 2 mM DTT. Serial dilutions of the test compounds were prepared at 4×final assay concentrations using Freedom EVO200® dispensing system as follows: 12×10^−5 M, 4×10^−5 M, 1.33×10^−5 M, 4.44×10^−6 M, 1.48×10^−6 M, 4.92×10^−7 M, 1.65×10^−7 M, 5.48×10^−7 M, 1.82×10^−8 M, 6.09×10^−9, 2.03×10^−9 M. Test compounds (2.5 μl at 4×the final assay concentration) was added to wells using Freedom EVO200® dispensing system. As a positive control, 2.5 μl of positive compound was added to assay wells, and 2.5 μl of DMSO to assay wells as vehicle control. Kinase solution was prepared in reaction buffer at 2×final assay concentration. Kinase solution (5 μl) was added to each well of the assay plate. The substrate and ATP solution was prepared in kinase reaction buffer at 4×final assay concentration. The kinase reaction was started by adding 2.5 μl of substrate+ATP mix solution to each well of the assay plate. The plate is mixed on a plate shaker; then covered and allowed to react for 2 hours in the dark at 25° C. without shaking. The reaction was stopped by adding 5 μl of stop solution to each test well followed by mixing and incubation at RT for 10 minutes in the dark. 5 μl of detection mix (detection antibody diluted in detection buffer) was added; the contents of the plate were mixed and then incubated in the dark for 1 hour at RT. The signal was recorded at TR-FRET mode (665 nm/615 nm).

PASK (Invitrogen), sequence (Q96RG2 999-1251): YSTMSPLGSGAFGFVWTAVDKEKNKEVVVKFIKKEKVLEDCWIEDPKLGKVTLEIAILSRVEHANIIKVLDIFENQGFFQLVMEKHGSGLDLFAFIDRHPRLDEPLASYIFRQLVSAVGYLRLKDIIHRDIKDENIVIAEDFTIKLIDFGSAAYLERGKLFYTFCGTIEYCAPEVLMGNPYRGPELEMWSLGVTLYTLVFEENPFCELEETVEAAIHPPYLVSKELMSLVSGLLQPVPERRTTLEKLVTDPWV

IC50, ≤ 10 µM:
O=c1cc(-c2ccc3c(c2)OCO3)[nH]c2nc(Cc3ccccc3)nn12 [Example 1, 5-(Benzo[d][1,3]dioxol-5-yl)-2-benzyl-[1,2,4]triazolo[1,5-a]pyrimidin-7(4H)-one]
O=c1cc(-c2ccc3[nH]nnc3c2)[nH]c2nc(-c3ccccn3)nn12 [Example 2, 5-(1H-Benzo[d][1,2,3]triazol-5-yl)-2-(pyridin-2-yl)-[1,2,4]triazolo[1,5-a]pyrimidin-7(4H)-one]
O=c1cc(-c2ccc3[nH]ncc3c2)[nH]c2nc(-c3ccccn3)nn12 [Example 3, 5-(1H-Indazol-5-yl)-2-(pyridin-2-yl)-[1,2,4]triazolo[1,5-a]pyrimidin-7(4H)-one]
Cc1nc2[nH]c(-c3ccc4[nH]ncc4c3)cc(=O)n2n1 [Example 4, 5-(1H-indazol-5-yl)-2-methyl-[1,2,4]triazolo[1,5-a]pyrimidin-7(4H)-one]
CCc1nc2[nH]c(-c3ccc4[nH]ncc4c3)cc(=O)n2n1 [Example 5, 2-Ethyl-5-(1H-indazol-5-yl)-[1,2,4]triazolo[1,5-a]pyrimidin-7(4H)-one]
CCc1nc2[nH]c(-c3ccc4[nH]nnc4c3)cc(=O)n2n1 [Example 6, 5-(1H-Benzo[d][1,2,3]triazol-5-yl)-2-ethyl-[1,2,4]triazolo[1,5-a]pyrimidin-7(4H)-one]
CNC(=O)c1nc2[nH]c(-c3ccc4[nH]nnc4c3)cc(=O)n2n1 [Example 7, 5-(1H-Benzo[d][1,2,3]triazol-5-yl)-N-methyl-7-oxo-4,7-dihydro-[1,2,4]triazolo[1,5-a]pyrimidine-2-carboxamide]
O=c1cc(-c2ccc3[nH]ncc3c2)[nH]c2nc(-c3ccc(Cl)c(Cl)c3)nn12 [Example 10, 2-(3,4-Dichlorophenyl)-5-(1H-indazol-5-yl)-[1,2,4]triazolo[1,5-a]pyrimidin-7(4H)-one]
O=c1cc(-c2ccc3[nH]ncc3c2)[nH]c2nc(-c3cccc(Cl)c3)nn12 [Example 12, 2-(3-Chlorophenyl)-5-(1H-indazol-5-yl)-[1,2,4]triazolo[1,5-a]pyrimidin-7(4H)-one]
O=c1cc(-c2ccc3[nH]nnc3c2)[nH]c2nc(-c3cccc(Cl)c3)nn12 [Example 13, 5-(1H-Benzo[d][1,2,3]triazol-5-yl)-2-(3-chlorophenyl)-[1,2,4]triazolo[1,5-a]pyrimidin-7(4H)-one]
CC(C)c1nc2[nH]c(-c3ccc4[nH]nnc4c3)cc(=O)n2n1 [Example 14, 5-(1H-Benzo[d][1,2,3]triazol-5-yl)-2-isopropyl-[1,2,4]triazolo[1,5-a]pyrimidin-7(4H)-one]
Cc1nc2[nH]c(-c3ccc4c(c3)OCCO4)cc(=O)n2n1 [Example 16, 5-(2,3-Dihydrobenzo[b][1,4]dioxin-6-yl)-2-methyl-[1,2,4]triazolo[1,5-a]pyrimidin-7(4H)-one]
O=c1cc(-c2ccc3c(c2)OCCO3)[nH]c2ncnn12 [Example 17, 5-(2,3-Dihydrobenzo[b][1,4]dioxin-6-yl)-[1,2,4]triazolo[1,5-a]pyrimidin-7(4H)-one]
O=c1cc(-c2ccc3c(c2)OCCO3)[nH]c2nc(Cc3ccccc3)nn12 [Example 18, 2-Benzyl-5-(2,3-dihydrobenzo[b][1,4]dioxin-6-yl)-[1,2,4]triazolo[1,5-a]pyrimidin-7(4H)-one]
COc1ccc(-c2cc(=O)n3nc(Cc4ccccc4)nc3[nH]2)cc1 [Example 19, 2-Benzyl-5-(4-methoxyphenyl)-[1,2,4]triazolo[1,5-a]pyrimidin-7(4H)-one]
O=c1cc(-c2ccc3[nH]ncc3c2)[nH]c2nc(-c3ccc(F)cc3)nn12 [Example 20, 2-(4-Fluorophenyl)-5-(1H-indazol-5-yl)-[1,2,4]triazolo[1,5-a]pyrimidin-7(4H)-one]

Reference: patent publication US11191765B2, “Heterocyclic compounds for the inhibition of PASK” (BioEnergenix LLC, priority 2012, dated 2021)
